Results reported in patent US10611740B2, “Aryl dihydro-2H-benzo[b][1,4]oxazine sulfonamide and related compounds for use as agonists of RORγ and the treatment of disease” (Lycera Corporation, priority 2015, dated 2020).

How the values were obtained:
[1] = target: T1, Gal4-RORγ-LBD (Homo sapiens, UniProt P51449); test: Gal4-RORγ Luciferase Reporter Assay in HEK-293T Cells; assay type: cell-based; conditions: HEK-293 cells
T1 construct: expressed in transfected cells; host or cells: HEK-293 cells (pcDNA3.1neo plasmid)
T1 sequence (P51449 269-508 limits assumed): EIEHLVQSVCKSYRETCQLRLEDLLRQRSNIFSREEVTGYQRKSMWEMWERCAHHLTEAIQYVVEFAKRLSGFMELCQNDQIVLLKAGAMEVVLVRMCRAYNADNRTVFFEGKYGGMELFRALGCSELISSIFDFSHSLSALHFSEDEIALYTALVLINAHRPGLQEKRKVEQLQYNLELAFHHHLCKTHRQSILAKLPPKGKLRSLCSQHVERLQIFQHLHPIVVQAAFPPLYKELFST
How it was run: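 Luminescence read-out (One-Glo, 10 min RT) after overnight compound exposure at 37 °C in HEK-293 cells carrying Gal4-RORγ-LBD plus a Gal4-luciferase reporter, in the presence of 2 μM ursolic acid. Max Response is the upper plateau from a 4-parameter logistic fit, normalized to untreated signal = 100.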

[2] = target: T2, RORγ-LBD (Homo sapiens, UniProt P51449); test: RORγ-Ligand Binding Domain (LBD) TR-FRET Assay; assay type: biochemical;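 for TR-FRET Assay Max Response: 665/615 nm ratio relative to signal without ursolic acid or compound set at 100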
T2 construct: made in house; host or cells: SF9 cells (baculovirus)
T2 sequence (P51449 269-508 limits assumed): T1 sequence (P51449 269-508 limits assumed)
How it was run: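 This TR-FRET coactivator assay pairs baculovirus-expressed His-RORγ-LBD (~3 nM final) with biotin-SRC1 LXXLL peptide at 200 nM final in pH 7.0 Tris/KCl/EDTA/DTT/BSA buffer.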

[3] = luciferase reporter, with 2 μM ursolic acid

EC50 [1, 3] | EC50 [2] | EC50 ([1]; 2 μM ursolic acid) | SMILES | Gal4-RORγ Assay Max Response [1, 3] | TR-FRET Assay Max Response [2] | Gal4-RORγ Assay Max Response ([1]; 2 μM ursolic acid)
500 to 5000 nM | < 500 nM |  | Cc1c(F)cc(-c2ccc3c(c2)N(S(=O)(=O)c2cccc(C(F)(F)F)c2)C[C@H](CC(C)C(=O)O)O3)c(Cl)c1F (stereo partly drawn) [Compound 46A, 3-((S)-6-(2-chloro-3,5-difluoro-4-methylphenyl)-4-((3-(trifluoro-methyl)phenyl)sulfonyl)-3,4-dihydro-2H-benzo[b][1,4]oxazin-2-yl)-2-methylpropanoic acid] | ** (The symbol “**” indicates a value in the range of greater than 90 to 150) | *** (The symbol “***” indicates a value in the range of greater than 150 to 200) | 
< 500 nM | < 500 nM |  | C[C@H](C[C@H]1CN(S(=O)(=O)c2cccc(C(F)(F)F)c2)c2cc(-c3cc(F)cc(F)c3Cl)ccc2O1)C(=O)O [Compound 46B, (R)-3-((S)-6-(2-chloro-3,5-difluorophenyl)-4-((3-(trifluoro-methyl)phenyl)sulfonyl)-3,4-dihydro-2H-benzo[b][1,4]oxazin-2-yl)-2-methylpropanoic acid] | ** (The symbol “**” indicates a value in the range of greater than 90 to 150) | *** (The symbol “***” indicates a value in the range of greater than 150 to 200) | 
< 500 nM | < 500 nM |  | C[C@@H](C[C@H]1CN(S(=O)(=O)c2cccc(C(F)(F)F)c2)c2cc(-c3cc(F)cc(F)c3Cl)ccc2O1)C(=O)O [Compound 46C, (S)-3-((S)-6-(2-chloro-3,5-difluorophenyl)-4-((3-(trifluoro-methyl)phenyl)sulfonyl)-3,4-dihydro-2H-benzo[b][1,4]oxazin-2-yl)-2-methylpropanoic acid] | ** (The symbol “**” indicates a value in the range of greater than 90 to 150) | *** (The symbol “***” indicates a value in the range of greater than 150 to 200) | 
 | < 500 nM | < 500 nM | C[C@H](C[C@H]1CN(S(=O)(=O)c2cccc(C(F)(F)F)c2)c2cc(-c3cccc(Cl)c3F)ccc2O1)C(=O)O [Compound 46D, (R)-3-((S)-6-(3-chloro-2-fluoro-phenyl)-4-((3-(trifluoromethyl)-phenyl)sulfonyl)-3,4-dihydro-2H-benzo[b][1,4]oxazin-2-yl)-2-methylpropanoic acid] |  | *** (The symbol “***” indicates a value in the range of greater than 150 to 200) | ** (The symbol “**” indicates a value in the range of greater than 90 to 150)
 | < 500 nM | 500 to 5000 nM | C[C@@H](C[C@H]1CN(S(=O)(=O)c2cccc(C(F)(F)F)c2)c2cc(-c3cccc(Cl)c3F)ccc2O1)C(=O)O [Compound 46E, (S)-3-((S)-6-(3-chloro-2-fluoro-phenyl)-4-((3-(trifluoromethyl)-phenyl)sulfonyl)-3,4-dihydro-2H-benzo[b][1,4]oxazin-2-yl)-2-methylpropanoic acid] |  | ** (The symbol “**” indicates a value in the range of greater than 90 to 150) | * (The symbol “*” indicates a value in the range of 25 to 90)
 | < 500 nM | 500 to 5000 nM | CC[C@H](C[C@H]1CN(S(=O)(=O)c2cccc(C(F)(F)F)c2)c2cc(-c3cc(F)cc(F)c3Cl)ccc2O1)C(=O)O [Compound 46F, (R)-2-(((S)-6-(2-chloro-3,5-difluorophenyl)-4-((3-(trifluoro-methyl)phenyl)sulfonyl)-3,4-dihydro-2H-benzo[b][1,4]oxazin-2-yl)methyl)butanoic acid] |  | *** (The symbol “***” indicates a value in the range of greater than 150 to 200) | * (The symbol “*” indicates a value in the range of 25 to 90)
 | < 500 nM | < 500 nM | CC[C@@H](C[C@H]1CN(S(=O)(=O)c2cccc(C(F)(F)F)c2)c2cc(-c3cc(F)cc(F)c3Cl)ccc2O1)C(=O)O [Compound 46G, (S)-2-(((S)-6-(2-chloro-3,5-difluorophenyl)-4-((3-(trifluoro-methyl)phenyl)sulfonyl)-3,4-dihydro-2H-benzo[b][1,4]oxazin-2-yl)methyl)butanoic acid] |  | ** (The symbol “**” indicates a value in the range of greater than 90 to 150) | ** (The symbol “**” indicates a value in the range of greater than 90 to 150)
 | < 500 nM | < 500 nM | O=S(=O)(c1cccc(C(F)(F)F)c1)N1C[C@H](CC2(CO)COC2)Oc2ccc(-c3cc(F)cc(OC(F)F)c3)cc21 [Compound 49, (S)-(3-((6-(3-(difluoromethoxy)-5-fluorophenyl)-4-((3-(trifluoromethyl)phenyl)sulfonyl)-3,4-dihydro-2H-benzo[b][1,4]oxazin-2-yl)methyl)oxetan-3-yl)methanol] |  | ** (The symbol “**” indicates a value in the range of greater than 90 to 150) | ** (The symbol “**” indicates a value in the range of greater than 90 to 150)
 | < 500 nM | < 500 nM | O=S(=O)(c1cccc(C(F)(F)F)c1)N1C[C@H](CC2(CO)COC2)Oc2ccc(-c3cc(F)cc(F)c3Cl)cc21 [Compound 51A, (S)-(3-((6-(2-chloro-3,5-difluoro-phenyl)-4-((3-(trifluoromethyl)-phenyl)sulfonyl)-3,4-dihydro-2H-benzo[b][1,4]oxazin-2-yl)methyl)oxetan-3-yl)methanol] |  | ** (The symbol “**” indicates a value in the range of greater than 90 to 150) | ** (The symbol “**” indicates a value in the range of greater than 90 to 150)
 | < 500 nM | < 500 nM | O=C(O)C1(C[C@H]2CN(S(=O)(=O)c3cccc(C(F)(F)F)c3)c3cc(-c4cc(F)cc(F)c4Cl)ccc3O2)COC1 [Compound 51B, (S)-3-((6-(2-chloro-3,5-difluoro-phenyl)-4-((3-(trifluoromethyl)-phenyl)sulfonyl)-3,4-dihydro-2H-benzo[b][1,4]oxazin-2-yl)methyl)oxetane-3-carboxylic acid] |  | *** (The symbol “***” indicates a value in the range of greater than 150 to 200) | ** (The symbol “**” indicates a value in the range of greater than 90 to 150)
 | < 500 nM | < 500 nM | COc1cc(F)cc(-c2ccc3c(c2)N(S(=O)(=O)c2cccc(C(F)(F)F)c2)C[C@H](CC2(C(=O)O)COC2)O3)c1F [Compound 51C, (S)-3-((6-(2,5-difluoro-3-methoxyphenyl)-4-((3-(trifluoromethyl)phenyl)sulfonyl)-3,4-dihydro-2H-benzo[b][1,4]oxazin-2-yl)methyl)oxetane-3-carboxylic acid] |  | ** (The symbol “**” indicates a value in the range of greater than 90 to 150) | ** (The symbol “**” indicates a value in the range of greater than 90 to 150)
 | < 500 nM | > 10000 nM | O=C(O)C1(C[C@H]2CN(S(=O)(=O)c3cccc(C4CC4)c3)c3cc(-c4cc(F)ccc4F)ccc3O2)COC1 [Compound 51E, (S)-3-((4-((3-cyclopropylphenyl)sulfonyl)-6-(2,5-difluorophenyl)-3,4-dihydro-2H-benzo[b][1,4]oxazin-2-yl)methyl)oxetane-3-carboxylic acid] |  | *** (The symbol “***” indicates a value in the range of greater than 150 to 200) | *** (The symbol “***” indicates a value in the range of greater than 150 to 200)
